Numbers after ± are expanded uncertainties.
Settings: Maximal bubble pressure

Row | surface tension liquid-gas (353.15 K) [mN/m] | surface tension liquid-gas (373.15 K) [mN/m] | surface tension liquid-gas (393.15 K) [mN/m] | surface tension liquid-gas (413.15 K) [mN/m] | surface tension liquid-gas (433.15 K) [mN/m] | surface tension liquid-gas (453.15 K) [mN/m] | surface tension liquid-gas (473.15 K) [mN/m] | surface tension liquid-gas (303.15 K) [mN/m] | surface tension liquid-gas (313.15 K) [mN/m] | surface tension liquid-gas (323.15 K) [mN/m] | surface tension liquid-gas (333.15 K) [mN/m] | surface tension liquid-gas (343.15 K) [mN/m] | Structure (SMILES)
1 | 39.6 ± 1.6 | 37.53 ± 1.5 | 35.33 ± 1.4 | 33.3 ± 1.4 | 31.1 ± 1.3 | 28.95 ± 1.2 | 26.8 ± 1.1 |  |  |  |  |  | O=C(OCc1ccccc1)c1ccccc1 [benzyl benzoate]
2 |  |  |  |  |  |  |  | 21.75 ± 0.89 | 20.9 ± 0.86 | 20.04 ± 0.82 | 19.18 ± 0.79 | 18.32 ± 0.75 | CO [methanol]

Reference: the NIST ThermoML archive (doi:10.1021/je700578f)
